Earlier results as cited in US20050148556A1, “Compositions and methods for increasing HDL and HDL-2b levels” (priority 2003, published 2005).

Conditions: in vivo

CN(C)C(=N)N=C(N)N [Metformin, metformin]
HDL cholesterol levels after metformin therapy: either do not change or increase slightly
